Here are results for 57 molecules from US20160031905A1, “Macrocyclic LRRK2 Kinase Inhibitors” (IPSEN PHARMA S.A.S., priority 2013, published 2016).

Structures can show the parent of a compound that is named as a salt. Bounds are passed on as bounds.

The term melting point denotes the temperature, or range, at which the solid turns liquid. By IC50 is commonly meant the point on the concentration scale where inhibition reaches its midpoint.

Data set [1] concerns the target T1, LRRK2 recombinant protein (Homo sapiens, UniProt Q5S007).
T1 construct: purchased Invitrogen Corporation
The data set can be described thus: Radiometric protein kinase assay (33PanQinase Activity Assay), in vitro peptide-based kinase assay. Type of data set: biochemical. The following applies: protein kinase LRRK2 7.3 nM, ATP 0.3 μM, substrate GSK3(14-27), 30° C. for 60 minutes. Here is the method:
The inhibition of LRRK2 kinase was assessed using LRRK2 recombinant protein in an in vitro peptide-based kinase assay.
A radiometric protein kinase assay (^33PanQinase® Activity Assay) is used for measuring the kinase activity. All assays are performed in 96-well FlashPlates™ from Perkin Elmer in a 50 μl reaction volume. The reaction cocktail is […] in 4 steps in the following order: • 10 μl of non-radioactive ATP solution (in H2O) • 25 μl of assay buffer/[γ-^33P]-ATP mixture • 5 μl of test sample in 10% DMSO • 10 μl of enzyme/substrate mixture
The assay for LRRK2 contains 70 mM HEPES-NaOH pH 7.5, 3 mM MgCl2, 3 mM MnCl2, 3 μM Na-orthovanadate, 1.2 mM DTT, 50 μg/ml PEG20000, ATP (0.3 μM), [γ-^33P]-ATP (approx. […] per well), protein kinase LRRK2 (7.3 nM) and substrate (GSK3(14-27), 1.0 μg/50 μl). The kinase is obtained from Invitrogen Corporation.
The reaction cocktails were incubated at 30° C. for 60 minutes. The reaction was stopped with 50 μl of 2% (v/v) H3PO4, plates were aspirated and washed two times with 200 μl 0.9% (w/v) NaCl. Incorporation of ^33Pi (counting of “cpm”) was determined with a microplate scintillation counter.
The compounds are dissolved to 10 mM in DMSO. Where needed, solutions are sonicated in a bath sonicator.

T1 sequence (Q5S007 whole entry): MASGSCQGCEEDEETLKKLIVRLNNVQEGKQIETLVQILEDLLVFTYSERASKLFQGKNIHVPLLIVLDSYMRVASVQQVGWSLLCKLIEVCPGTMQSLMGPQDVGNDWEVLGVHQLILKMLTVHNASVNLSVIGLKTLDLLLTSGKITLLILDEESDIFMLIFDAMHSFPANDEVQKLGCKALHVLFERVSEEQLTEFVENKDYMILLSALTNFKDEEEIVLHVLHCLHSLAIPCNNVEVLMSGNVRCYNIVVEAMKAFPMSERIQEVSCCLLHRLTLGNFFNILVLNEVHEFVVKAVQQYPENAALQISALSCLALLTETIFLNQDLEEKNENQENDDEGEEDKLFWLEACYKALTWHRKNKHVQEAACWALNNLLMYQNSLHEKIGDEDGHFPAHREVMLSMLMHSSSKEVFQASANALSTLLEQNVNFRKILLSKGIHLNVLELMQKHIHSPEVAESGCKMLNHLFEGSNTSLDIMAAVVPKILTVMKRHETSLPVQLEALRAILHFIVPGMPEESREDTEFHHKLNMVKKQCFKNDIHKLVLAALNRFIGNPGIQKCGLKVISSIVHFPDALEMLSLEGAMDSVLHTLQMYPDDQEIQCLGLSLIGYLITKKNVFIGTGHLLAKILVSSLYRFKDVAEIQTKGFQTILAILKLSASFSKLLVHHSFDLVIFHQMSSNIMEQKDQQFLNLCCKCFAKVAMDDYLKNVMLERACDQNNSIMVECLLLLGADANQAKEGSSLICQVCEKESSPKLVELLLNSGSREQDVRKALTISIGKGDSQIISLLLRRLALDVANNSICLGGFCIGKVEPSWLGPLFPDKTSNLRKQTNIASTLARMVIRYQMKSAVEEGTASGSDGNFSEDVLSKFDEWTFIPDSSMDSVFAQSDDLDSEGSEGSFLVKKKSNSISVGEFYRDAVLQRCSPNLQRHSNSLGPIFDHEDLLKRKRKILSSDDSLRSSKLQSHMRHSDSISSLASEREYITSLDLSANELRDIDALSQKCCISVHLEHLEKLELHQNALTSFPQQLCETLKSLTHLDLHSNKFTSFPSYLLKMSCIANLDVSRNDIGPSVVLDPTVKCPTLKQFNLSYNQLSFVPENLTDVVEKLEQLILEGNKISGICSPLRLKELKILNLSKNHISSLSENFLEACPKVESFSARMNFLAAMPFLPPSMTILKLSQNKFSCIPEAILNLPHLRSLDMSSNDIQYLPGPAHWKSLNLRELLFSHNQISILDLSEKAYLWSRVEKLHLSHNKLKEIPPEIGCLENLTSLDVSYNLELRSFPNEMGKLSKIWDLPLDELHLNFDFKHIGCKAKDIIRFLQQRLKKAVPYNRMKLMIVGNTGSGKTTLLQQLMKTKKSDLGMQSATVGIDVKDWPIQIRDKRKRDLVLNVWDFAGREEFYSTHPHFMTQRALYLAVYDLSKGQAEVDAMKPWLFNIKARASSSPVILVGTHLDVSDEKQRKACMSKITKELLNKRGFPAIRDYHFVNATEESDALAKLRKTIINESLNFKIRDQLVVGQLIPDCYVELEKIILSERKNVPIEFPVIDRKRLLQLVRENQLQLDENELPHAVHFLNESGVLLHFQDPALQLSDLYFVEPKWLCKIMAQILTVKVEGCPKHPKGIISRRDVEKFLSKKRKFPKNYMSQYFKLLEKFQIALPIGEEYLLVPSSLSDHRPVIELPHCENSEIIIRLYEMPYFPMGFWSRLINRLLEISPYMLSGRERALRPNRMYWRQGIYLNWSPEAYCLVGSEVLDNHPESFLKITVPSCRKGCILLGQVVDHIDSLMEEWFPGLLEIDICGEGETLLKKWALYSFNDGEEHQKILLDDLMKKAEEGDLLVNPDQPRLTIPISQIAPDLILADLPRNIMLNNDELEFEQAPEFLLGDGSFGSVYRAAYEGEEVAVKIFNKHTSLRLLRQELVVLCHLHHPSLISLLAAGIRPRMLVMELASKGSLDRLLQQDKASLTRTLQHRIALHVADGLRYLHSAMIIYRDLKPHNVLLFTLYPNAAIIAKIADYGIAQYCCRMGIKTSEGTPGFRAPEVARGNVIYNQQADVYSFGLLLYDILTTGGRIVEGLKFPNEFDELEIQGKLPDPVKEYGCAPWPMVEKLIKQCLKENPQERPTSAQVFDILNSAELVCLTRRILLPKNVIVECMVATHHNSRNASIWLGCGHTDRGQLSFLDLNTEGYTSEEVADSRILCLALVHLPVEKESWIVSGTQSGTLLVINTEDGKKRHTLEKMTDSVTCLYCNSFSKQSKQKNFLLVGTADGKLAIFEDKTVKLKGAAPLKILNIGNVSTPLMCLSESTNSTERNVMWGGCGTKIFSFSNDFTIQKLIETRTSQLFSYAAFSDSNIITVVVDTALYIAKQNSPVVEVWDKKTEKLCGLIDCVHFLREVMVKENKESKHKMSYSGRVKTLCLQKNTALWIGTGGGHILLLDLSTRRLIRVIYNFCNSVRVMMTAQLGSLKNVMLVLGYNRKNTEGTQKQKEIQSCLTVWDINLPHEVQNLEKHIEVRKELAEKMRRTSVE

In turn, `c1cc2cc(c1)-c1cnn3ccc(nc13)NCCCNCCCN2` (as salt: HCl) [Compound G1] registered a melting point of 280 °C.
`c1cc2cc(c1)-c1cnn3ccc(nc13)OCCCNCCN2` (as salt: HCl) [Compound G3]: the melting point was found to be 280 °C.
Same read-out and setting: in the case of `CN1CCCNCCOc2ccc(F)c(c2)-c2cnn3ccc1nc23` (as salt: HCl) [Compound G16] it was above 300 °C; in that of `CN1CCCNc2ccn3ncc(c3n2)-c2cc(ccc2F)OCC1` (as salt: HCl) [Compound G18], above 300 °C.
The same measure, in the same setting: in the case of `Fc1ccc2cc1-c1cnn3ccc(nc13)NCCNCCO2` (as salt: hydrochloride) [Compound C1] it was above 300 °C.
Molecule `CC1CNCCNc2ccn3ncc(c3n2)-c2cccc(c2)O1` (racemic) [Compound G5] showed a melting point of 215 °C. The IC50 in data set [1] is below 100 nM.
Taken in the same sequence, the figures for `c1cc2cc(c1)-c1cnn3ccc(nc13)NCCCNCCO2` [Compound A33] were above 300 °C and below 100 nM.
Regarding `Fc1ccc2cc1-c1cnn3ccc(nc13)NCCNCCO2` [Compound C1], the IC50 in data set [1] was below 100 nM.
With `Fc1ccc2cc1OCCNCCNc1ccn3ncc-2c3n1` [Compound C2], the melting point is above 300 °C. Moreover, the half-maximal inhibitory concentration (IC50) in data set [1] is below 100 nM.
Taken in the same sequence, the figures for `c1cc2cc(c1)-c1cnn3ccc(nc13)NCCNCCN2` [Compound D1] were above 300 °C and below 100 nM.
For `c1cc2cc(c1)-c1cnn3ccc(nc13)NCCNCCCN2` [Compound D3] the same measures were above 300 °C and below 100 nM.
For `c1cc2cc(c1)-c1cnn3ccc(nc13)NCCCNCCN2` [Compound D4] the same measures were 296.8 °C and below 100 nM.
As to `c1cc2cc(c1)-c1cnn3ccc(nc13)NCCCCNCCCO2` [Compound D5], the melting point worked out at 146.9 °C. In addition, the IC50 in data set [1] was below 100 nM.
Consider `c1cc2cc(c1)-c1cnn3ccc(nc13)NCCCNCCCN2` [Compound G1], for which, in data set [1], the IC50 was below 100 nM.
As for `CN1CCNCCOc2cccc(c2)-c2cnn3ccc1nc23` [Compound G2], the melting point is above 300 °C. For the same molecule, the IC50 in data set [1] was below 100 nM.
In the case of `c1cc2cc(c1)-c1cnn3ccc(nc13)OCCCNCCN2` [Compound G3], the IC50 in data set [1] was below 100 nM.
With `c1cc2cc(c1)-c1cnc3ccc(nn13)NCCCNCCO2` [Compound G4], the melting point is above 300 °C. In addition, the IC50 in data set [1] was below 100 nM.
In turn, `Fc1ccc2cc1-c1cnn3ccc(nc13)NCCCNCCO2` [Compound G6] registered a melting point of 197.6 °C. For the same molecule, in data set [1], the IC50 was below 100 nM.
Taken in the same sequence, the figures for `Fc1ccc2cc1-c1cnn3ccc(nc13)NCCNCCN2` [Compound G7] were above 300 °C and below 100 nM.
In the case of `c1cc2cc(c1)-c1cnn3ccc(nc13)OCCNCCCN2` [Compound G8], the melting point came out at 276.7 °C. Moreover, the IC50 in data set [1] was below 100 nM.
Consider `CC1COc2cccc(c2)-c2cnn3ccc(nc23)NCCN1` (stereo not drawn) [Compound G11], for which the melting point was 245.9 °C. Also, in data set [1], the IC50 was below 100 nM.
For `Fc1ccc2cc1-c1cnn3ccc(nc13)NCCCNCCN2` [Compound G12] the same measures were above 300 °C and below 100 nM.
For `c1cc2cc(c1)-c1cnn3ccc(nc13)NCCCCNCCO2` [Compound G14] the same measures were above 300 °C and below 100 nM.
For `Fc1ccc2cc1-c1cnc3ccc(nn13)NCCCNCCO2` [Compound G15], the IC50 in data set [1] is below 100 nM.
The same measure, in the same setting: in the case of `CN1CCCNCCOc2ccc(F)c(c2)-c2cnn3ccc1nc23` [Compound G16] it was below 100 nM.
`CN1CCCNCCOc2cccc(c2)-c2cnn3ccc1nc23` [Compound G17] registered a melting point of 297.5 °C. For the same molecule, the IC50 in data set [1] is below 100 nM.
Take `CN1CCCNc2ccn3ncc(c3n2)-c2cc(ccc2F)OCC1` [Compound G18]: in data set [1], the IC50 is below 100 nM.
In turn, `Fc1ccc2cc1-c1cnn3ccc(nc13)OCCCNCCN2` [Compound G19] yielded a melting point of 279.1 °C. For the same molecule, the IC50 in data set [1] was below 100 nM.
Take `CN1CCCNc2ccn3ncc(c3n2)-c2cccc(c2)OCC1` [Compound G20]: the IC50 in data set [1] is below 100 nM.
`Fc1ccc2cc1-c1cnn3ccc(nc13)NCCNCCCN2` [Compound G21]: the melting point was above 300 °C. For the same molecule, the IC50 in data set [1] was below 100 nM.
For `CN1CCNCCCOc2cccc(c2)-c2cnn3ccc1nc23` [Compound G22] the same measures were 286.4 °C and below 100 nM.
Taken in the same sequence, the figures for `CC1CNCCCNc2ccn3ncc(c3n2)-c2cccc(c2)O1` (stereo not drawn) [Compound G23] were above 300 °C and below 100 nM.
For `CN1CCCNCCOc2ccc(F)c(c2)-c2cnc3ccc1nn23` [Compound G24] the same measures were above 300 °C and below 100 nM.
`CN1CCCOc2ccc(F)c(c2)-c2cnn3ccc(nc23)NCC1` [Compound G25] yielded a melting point of 168.8 °C. Besides, in data set [1], the IC50 lay within 100 to 1000 nM.
With `CN1CCNCCCOc2ccc(F)c(c2)-c2cnn3ccc1nc23` [Compound G26], the melting point is above 300 °C. Moreover, the IC50 in data set [1] is below 100 nM.
For `Clc1ccc2cc1-c1cnn3ccc(nc13)NCCCNCCO2` [Compound G27] the same measures were above 300 °C and below 100 nM.
Turning to `CC1CNCCCNc2ccn3ncc(c3n2)-c2cc(ccc2F)O1` (stereo not drawn) [Compound G28], the melting point is above 300 °C. Further, the IC50 in data set [1] is below 100 nM.
Taken in the same sequence, the figures for `Clc1ccc2cc1-c1cnn3ccc(nc13)NCCNCCCO2` [Compound G30] were above 300 °C and 100 to 1000 nM.
Consider `CC1COc2cccc(c2)-c2cnn3ccc(nc23)NCCCN1` (stereo not drawn) [Compound G31], for which the IC50 in data set [1] is below 100 nM.
On to `c1cc2cc(c1)-c1cnc3ccc(nn13)NCCNCCCO2` [Compound G32], for which the melting point was above 300 °C. For the same molecule, in data set [1], the IC50 was below 100 nM.
The molecule `Fc1ccc2cc1-c1cnc3ccc(nn13)NCCNCCCO2` [Compound G33] returned a melting point above 300 °C. The IC50 in data set [1] is below 100 nM.
Taken in the same sequence, the figures for `CN1CCNCCCOc2ccc(F)c(c2)-c2cnc3ccc1nn23` [Compound G34] were above 300 °C and below 100 nM.
`CN1CCCNCCNc2ccc(F)c(c2)-c2cnn3ccc1nc23` [Compound G35] gave a melting point of 284.8 °C. The IC50 in data set [1] was below 100 nM.
For `Fc1ccc2cc1-c1cnc3ccc(nn13)OCCCNCCN2` [Compound G36] the same measures were above 300 °C and below 100 nM.
`Fc1ccc2cc1-c1cnc3ccc(nn13)NCCNCCCN2` [Compound G37] came in with a melting point above 300 °C. For the same molecule, the IC50 in data set [1] is below 100 nM.
Taken in the same sequence, the figures for `CN1CCNCCCNc2ccc(F)c(c2)-c2cnn3ccc1nc23` [Compound G39] were above 300 °C and below 100 nM.
Take `Fc1ccc2cc1-c1cnn3ccc(nc13)NCCCCNCCO2` [Compound G40]: the melting point is above 300 °C. In addition, the IC50 in data set [1] was below 100 nM.
Regarding `CN1CCNCCCNc2ccc(F)c(c2)-c2cnc3ccc1nn23` [Compound G41], the melting point was determined as 263.8 °C. For the same molecule, in data set [1], the IC50 was below 100 nM.
Taken in the same sequence, the figures for `Cc1ccc2cc1-c1cnn3ccc(nc13)NCCCNCCO2` [Compound G42] were 296.8 °C and 100 to 1000 nM.
For `Fc1ccc2cc1-c1cnc3ccc(nn13)NCCCNCCN2` [Compound G43] the same measures were above 300 °C and below 100 nM.
Taken in the same sequence, the figures for `CN1CCCOc2ccc3ncc(n3n2)-c2cc(ccc2F)NCC1` [Compound G44] were 242.3 °C and below 100 nM.
On to `CN1CCCNc2ccc(F)c(c2)-c2cnc3ccc(nn23)NCC1` [Compound G45], for which the melting point amounted to 289.1 °C. Besides, in data set [1], the IC50 is below 100 nM.
For `Fc1ccc2cc1-c1cnn3ccc(nc13)NCCCCNCCN2` [Compound G46], the melting point came out at 270.4 °C. Also, the IC50 in data set [1] was below 100 nM.
Molecule `N#CCN1CCCNc2ccc(F)c(c2)-c2cnn3ccc(nc23)NCC1` [Compound G47] returned a melting point of 262.6 °C. The IC50 in data set [1] is below 100 nM.
For `CN1CCCNc2ccc(F)c(c2)-c2cnc3ccc(nn23)N(C)CC1` [Compound G48] the same measures were 289.4 °C and 100 to 1000 nM.
As to `Fc1ccc2cc1-c1cnn3ccc(nc13)NCCCOCCN2` [Compound G49], in data set [1], the half-maximal inhibitory concentration (IC50) is below 100 nM.
Still for that read-out and setting: in the case of `CN1CCCNCCNc2ccc(F)c(c2)-c2cnc3ccc1nn23` [Compound G50] it was below 100 nM.
